Test results published in PMC3234597, “Two Panels of Steroid Receptor Luciferase Reporter Cell Lines for Compound Profiling” (Combinatorial Chemistry & High Throughput Screening, 2011).
Entries after “also recorded” stand apart in the source; their conditions may differ. Read-outs that look alike come from different tables or passages of the source.

Tests used:
Type in all cases: cell-based
human AR (full-length) [1] = target: T1, human AR (full-length) (Homo sapiens, UniProt P10275); test: U2OS-AR/3xGRE luciferase reporter cell line (full-length receptor); conditions: for Log EC50: agonist mode, 20 h, log10 of molar EC50, mean ± SEM; for Log EC50 / Log IC50: AR/3xGRE; for Log IC50: antagonist mode, in the presence of 0.05 nM dihydrotestosterone, log10 of molar IC50, mean ± SEM
T1 construct: expression vectors encoding full-length steroid receptors: pcDNA3-hAR and pcDNA3-hGR; host or cells: U2OS
T1 sequence (P10275 1-920): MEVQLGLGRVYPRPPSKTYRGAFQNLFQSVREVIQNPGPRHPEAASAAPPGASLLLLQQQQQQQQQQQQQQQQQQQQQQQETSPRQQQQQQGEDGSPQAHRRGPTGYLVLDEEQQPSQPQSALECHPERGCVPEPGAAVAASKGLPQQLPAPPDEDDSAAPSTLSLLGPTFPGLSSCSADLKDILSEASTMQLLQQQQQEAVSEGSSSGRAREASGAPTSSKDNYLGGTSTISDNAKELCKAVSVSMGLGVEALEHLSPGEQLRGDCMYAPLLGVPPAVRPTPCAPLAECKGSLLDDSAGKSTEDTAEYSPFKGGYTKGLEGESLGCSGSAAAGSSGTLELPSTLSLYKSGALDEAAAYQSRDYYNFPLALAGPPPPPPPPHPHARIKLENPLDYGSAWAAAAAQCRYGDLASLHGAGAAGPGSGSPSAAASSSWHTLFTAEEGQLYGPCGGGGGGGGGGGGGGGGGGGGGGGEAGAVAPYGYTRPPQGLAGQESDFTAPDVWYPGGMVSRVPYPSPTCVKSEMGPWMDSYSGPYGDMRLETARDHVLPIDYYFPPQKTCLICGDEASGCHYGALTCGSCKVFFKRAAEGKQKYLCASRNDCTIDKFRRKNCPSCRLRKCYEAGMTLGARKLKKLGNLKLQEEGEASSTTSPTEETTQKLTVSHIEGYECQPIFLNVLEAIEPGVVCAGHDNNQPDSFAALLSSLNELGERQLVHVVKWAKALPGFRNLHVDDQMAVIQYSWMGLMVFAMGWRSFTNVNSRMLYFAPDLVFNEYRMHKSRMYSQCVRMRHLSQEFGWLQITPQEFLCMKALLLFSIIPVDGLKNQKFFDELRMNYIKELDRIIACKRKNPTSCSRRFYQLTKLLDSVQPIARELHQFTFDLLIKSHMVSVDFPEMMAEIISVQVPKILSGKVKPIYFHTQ

MR-LBD fused to Gal4-DBD = target: T2, MR-LBD fused to Gal4-DBD (Homo sapiens, UniProt P08235); test: U2OS-MR-LBD/9xGal4UAS luciferase reporter cell line; conditions: for Log EC50: agonist mode, 20 h, log10 of molar EC50, mean ± SEM; for Log EC50 / Log IC50: MR-LBD/9xGal4UAS; for Log IC50: antagonist mode, in the presence of 1 nM aldosterone, log10 of molar IC50, mean ± SEM
T2 construct: MR-LBD was cloned by RT-PCR from total RNA isolated from HEK293 cells; expressed in transfected cells; host or cells: U2OS
T2 sequence (P08235 726-964 limits assumed): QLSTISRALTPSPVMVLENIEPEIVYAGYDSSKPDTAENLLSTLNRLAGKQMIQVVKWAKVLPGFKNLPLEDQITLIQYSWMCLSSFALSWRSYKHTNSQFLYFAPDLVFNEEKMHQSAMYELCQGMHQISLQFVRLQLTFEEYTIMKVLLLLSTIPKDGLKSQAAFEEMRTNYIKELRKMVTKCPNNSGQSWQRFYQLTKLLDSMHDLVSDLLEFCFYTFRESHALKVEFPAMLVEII

human ERβ (full-length) = target: T3, human ERβ (full-length) (Homo sapiens, UniProt Q92731); test: U2OS-ERβ/3xERE luciferase reporter cell line (full-length receptor); conditions: for EC50: read-out: Log EC50 (converted)
T3 construct: expression vectors encoding full-length steroid receptors: pcDNA3-hERα and pcDNA3-ERβ; expressed in transfected cells; host or cells: U2OS

human AR (full-length) [2] = target: T1, human AR (full-length); test: U2OS-AR/MMTV luciferase reporter cell line (full-length receptor); conditions: for Log EC50: agonist mode, 20 h, log10 of molar EC50, mean ± SEM; for Log EC50 / Log IC50: AR/MMTV; for Log IC50: antagonist mode, in the presence of 0.05 nM dihydrotestosterone, log10 of molar IC50, mean ± SEM
human GR (full-length) = target: T4, human GR (full-length) (Homo sapiens, UniProt P04150); test: U2OS-GR/3xGRE luciferase reporter cell line (full-length receptor); conditions: for Log EC50: agonist mode, 20 h, log10 of molar EC50, mean ± SEM; for Log EC50 / Log IC50: GR/3xGRE; for Log IC50: antagonist mode, in the presence of 5 nM dexamethasone, log10 of molar IC50, mean ± SEM
T4 construct: expression vectors encoding full-length steroid receptors: pcDNA3-hAR and pcDNA3-hGR; host or cells: U2OS
T4 sequence (P04150 1-777): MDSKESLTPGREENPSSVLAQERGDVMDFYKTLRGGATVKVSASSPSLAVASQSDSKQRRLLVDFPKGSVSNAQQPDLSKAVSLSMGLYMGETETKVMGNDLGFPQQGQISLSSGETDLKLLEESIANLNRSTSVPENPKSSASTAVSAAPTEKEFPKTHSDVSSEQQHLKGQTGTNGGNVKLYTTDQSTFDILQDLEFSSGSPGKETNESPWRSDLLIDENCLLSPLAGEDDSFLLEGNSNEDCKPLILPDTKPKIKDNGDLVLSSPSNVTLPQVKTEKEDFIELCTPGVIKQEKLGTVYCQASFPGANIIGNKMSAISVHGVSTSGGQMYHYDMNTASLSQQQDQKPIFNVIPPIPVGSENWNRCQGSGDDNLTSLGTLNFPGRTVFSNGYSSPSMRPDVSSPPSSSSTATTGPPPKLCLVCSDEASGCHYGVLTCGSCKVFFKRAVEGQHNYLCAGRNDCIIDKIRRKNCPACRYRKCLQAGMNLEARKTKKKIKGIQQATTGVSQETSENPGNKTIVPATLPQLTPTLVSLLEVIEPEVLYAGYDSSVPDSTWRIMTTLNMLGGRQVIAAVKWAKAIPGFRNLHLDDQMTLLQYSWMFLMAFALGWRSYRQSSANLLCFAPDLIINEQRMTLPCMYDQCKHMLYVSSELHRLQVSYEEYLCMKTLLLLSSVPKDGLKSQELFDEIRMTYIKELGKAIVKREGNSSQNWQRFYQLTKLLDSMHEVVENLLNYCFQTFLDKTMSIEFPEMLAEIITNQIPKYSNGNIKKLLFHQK

[3] = target: T5, ERα^G420C-LBD fused to Gal4-DBD (Homo sapiens, UniProt P03372, G420C); test: U2OS-ERα^G420C-LBD/9xGal4UAS luciferase reporter cell line
T5 construct: expressed in transfected cells; host or cells: U2OS
T5 sequence (P03372 311-547 G420C limits assumed): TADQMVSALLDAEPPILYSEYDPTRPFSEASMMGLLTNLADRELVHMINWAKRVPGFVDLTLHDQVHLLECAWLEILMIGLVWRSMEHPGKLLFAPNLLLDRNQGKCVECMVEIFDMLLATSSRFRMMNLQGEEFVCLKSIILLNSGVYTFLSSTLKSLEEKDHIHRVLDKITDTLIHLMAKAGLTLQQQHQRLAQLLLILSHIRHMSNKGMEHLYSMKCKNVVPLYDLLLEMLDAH

[4] = target: T6, ERα^wt-LBD fused to Gal4-DBD (Homo sapiens, UniProt P03372); test: U2OS-ERα^wt-LBD/9xGal4UAS luciferase reporter cell line
T6 construct: ERα-LBD (amino acids 303-595) based on GenBank NM_000125; expressed in transfected cells; host or cells: U2OS
T6 sequence (P03372 303-595): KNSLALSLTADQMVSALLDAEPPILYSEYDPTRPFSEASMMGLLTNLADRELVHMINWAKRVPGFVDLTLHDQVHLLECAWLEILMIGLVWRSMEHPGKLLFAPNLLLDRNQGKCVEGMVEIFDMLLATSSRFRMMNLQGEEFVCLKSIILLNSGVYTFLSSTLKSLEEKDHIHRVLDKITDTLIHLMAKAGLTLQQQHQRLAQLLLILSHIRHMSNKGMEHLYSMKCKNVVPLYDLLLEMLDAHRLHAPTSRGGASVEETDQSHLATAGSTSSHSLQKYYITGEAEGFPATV

T3 sequence (Q92731 whole entry): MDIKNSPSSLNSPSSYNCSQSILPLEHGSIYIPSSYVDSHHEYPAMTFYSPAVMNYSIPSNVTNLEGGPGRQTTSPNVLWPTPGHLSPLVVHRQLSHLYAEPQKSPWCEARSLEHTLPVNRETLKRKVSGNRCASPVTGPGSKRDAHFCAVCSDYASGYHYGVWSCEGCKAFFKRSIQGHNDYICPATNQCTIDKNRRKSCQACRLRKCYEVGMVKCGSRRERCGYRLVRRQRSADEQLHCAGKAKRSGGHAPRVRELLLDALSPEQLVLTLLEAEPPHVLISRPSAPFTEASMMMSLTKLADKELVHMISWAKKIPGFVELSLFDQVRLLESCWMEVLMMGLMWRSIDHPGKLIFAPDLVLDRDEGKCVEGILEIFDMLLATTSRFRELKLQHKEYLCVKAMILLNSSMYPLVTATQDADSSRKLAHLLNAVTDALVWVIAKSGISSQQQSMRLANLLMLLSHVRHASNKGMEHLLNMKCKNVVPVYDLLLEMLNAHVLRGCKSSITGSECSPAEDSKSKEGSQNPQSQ

Row | SMILES | Log EC50 (MR-LBD fused to Gal4-DBD) | Log IC50 (MR-LBD fused to Gal4-DBD) | EC50 (human AR (full-length) [1]) | EC50 [3] | EC50 [4] | EC50 (human ERβ (full-length)) | EC50 (human AR (full-length) [2]) | EC50 (human GR (full-length); read-out: Log EC50 (converted)) | EC50 (MR-LBD fused to Gal4-DBD; read-out: Log EC50 (converted)) | also measured
1 | CC[C@@H]1Cc2cc(O)ccc2C2=C1c1ccc(O)cc1C[C@H]2CC (relative stereo) [R.R-THC, (R,R)-cis-diethyltetrahydro-2,8-chrysenediol] | > -5.00 M | -5.08 ± 0.13 M | – | – | – | – | – | – | – | Log EC50 (human AR (full-length) [1]): > -5.00 M; Log IC50 (human AR (full-length) [1]): -5.26 ± 0.28 M; Log EC50 (human ERβ (full-length); agonist mode, ERβ/3xERE, 20 h, log10 of molar EC50, mean ± SEM): > -5.00 M; Log IC50 (human ERβ (full-length); antagonist mode, ERβ/3xERE, in the presence of 1 nM E2, log10 of molar IC50, mean ± SEM): -7.30 ± 0.14 M; Log EC50 (human AR (full-length) [2]): > -5.00 M; Log IC50 (human AR (full-length) [2]): -5.22 ± 1.26 M; Log EC50 (human GR (full-length)): > -5.00 M; Log IC50 (human GR (full-length)): > -5.00 M
2 | C[C@]12CCC(=O)C=C1CC[C@@H]1[C@@H]2[C@@H](O)C[C@]2(C=O)[C@@H](C(=O)CO)CC[C@@H]12 [Aldosterone, aldosterone] | – | – | > 10 µM | > 10 µM | > 10 µM | > 10 µM | > 10 µM | 0.0302 µM | – | –
3 | C[C@H]1C[C@H]2[C@@H]3CCC4=CC(=O)C=C[C@]4(C)[C@@]3(Cl)[C@@H](O)C[C@]2(C)[C@@]1(O)C(=O)CO [Beclomethasone, beclomethasone] | -7.95 ± 0.10 M | -7.64 ± 0.10 M | – | – | – | – | – | – | – | Log EC50 ([3]; agonist mode, ERα^G420C-LBD/9xGal4UAS, 20 h, log10 of molar EC50, mean ± SEM): > -5.00 M; Log IC50 ([3]; antagonist mode, ERα^G420C-LBD/9xGal4UAS, in the presence of 20 nM E2, log10 of molar IC50, mean ± SEM): > -5.00 M; activity profile in words (MR-LBD fused to Gal4-DBD; MR-LBD expressing reporter cell line, agonist and antagonist mode): only weakly and partially activated; also recorded: pronounced full antagonist effect; Log EC50 ([4]; agonist mode, ERα^wt-LBD/9xGal4UAS, 20 h, log10 of molar EC50, mean ± SEM): > -5.00 M; Log IC50 ([4]; antagonist mode, ERα^wt-LBD/9xGal4UAS, in the presence of 1 nM E2, log10 of molar IC50, mean ± SEM): > -5.00 M
4 | C[C@]12C[C@H](O)[C@H]3[C@@H](CCC4=CC(=O)CC[C@@]43C)[C@@H]1CC[C@@H]2C(=O)CO [Corticosterone, corticosterone] | – | – | – | > 10 µM | > 10 µM | > 10 µM | – | 0.00589 µM | 2.63e-05 µM | –
5 | C#C[C@]1(O)CC[C@H]2[C@@H]3CCC4=Cc5oncc5C[C@]4(C)[C@H]3CC[C@@]21C [Danazol, danazol] | – | – | – | > 10 µM | 0.245 µM | > 10 µM | – | > 10 µM | > 10 µM | –
6 | O=c1c(-c2ccc(O)cc2)coc2cc(O)cc(O)c12 [Genistein, genistein] | – | – | > 10 µM | – | – | – | > 10 µM | – | – | EC50 (MR-LBD fused to Gal4-DBD): > 10 µM; EC50 (human GR (full-length)): > 10 µM
7 | C[C@]12CC[C@@H]3c4ccc(O)cc4C[C@@H](CCCCCCCCC[S+]([O-])CCCC(F)(F)C(F)(F)F)[C@H]3[C@@H]1CC[C@@H]2O (stereo partly shown) [ICI 182.780] | > -5.00 M | > -5.00 M | – | – | – | – | – | – | – | Log EC50 (human AR (full-length) [1]): > -5.00 M; Log IC50 (human AR (full-length) [1]): > -5.00 M; Log EC50 (human AR (full-length) [2]): > -5.00 M; Log IC50 (human AR (full-length) [2]): > -5.00 M; Log EC50 (human GR (full-length)): > -5.00 M; Log IC50 (human GR (full-length)): > -5.00 M
8 | CCCc1c(-c2ccc(O)cc2)nn(-c2ccc(O)cc2)c1-c1ccc(O)cc1 [PPT, propyl pyrazole triol] | – | – | > 10 µM | 0.0115 µM | 0.0024 µM | > 10 µM | > 10 µM | > 10 µM | > 10 µM | –
9 | CCC(=O)[C@@]1(C)CC[C@H]2[C@@H]3CCC4=CC(=O)CCC4=C3CC[C@@]21C [Promegestone (R5020), promegestone] | – | – | > 10 µM | > 10 µM | > 10 µM | > 10 µM | > 10 µM | > 3.16 µM | > 10 µM | IC50 (human AR (full-length) [2]): 0.0126 µM
10 | C[C@]12C=CC(=O)C=C1CC[C@H]1[C@@H]3C[C@@H](O)[C@](O)(C(=O)CO)[C@@]3(C)C[C@H](O)[C@@]12F [Triamcinolone, triamcinolone] | – | – | – | > 10 µM | > 10 µM | – | – | 0.00468 µM | 0.0759 µM | –
